Reference: paper PMC12057363 (Antimicrobial Agents and Chemotherapy, 2025)
Several values for one entry are separate records, joined by “and”; a condition that tells them apart may be missing. Equal values may be shown once. Read-outs that look alike come from different tables or passages of the source.

Tests used:
YFV-17D [1] = test: microbe, parasite or virus in culture; format: cell-based; conditions: Yellow fever virus, Macrophage, 72 h; for EC50: read-out: Anti-YFV-17D activity MDM EC50; for EC90: read-out: Anti-YFV-17D activity MDM EC90
YFV-17D [2] = test: microbe, parasite or virus in culture; format: cell-based; conditions: Yellow fever virus; for EC90: read-out: Anti-YFV-17D activity Huh-7 EC90
YFV-DakH1279 = test: microbe, parasite or virus in culture; format: cell-based, Yellow fever virus; conditions: for EC50 / EC90: Yellow fever virus, Huh-7, 48 h; for EC50: read-out: Anti-YFV-DakH1279 EC50 (reduction in infectious virus); for EC90: read-out: Anti-YFV-DakH1279 EC90 (reduction in infectious virus)
YFV-17D [3] = test: microbe, parasite or virus in culture; format: cell-based; conditions: Yellow fever virus, Huh-7, 72 h; for EC50: read-out: Anti-YFV-17D activity 3D spheroids EC50; for EC90: read-out: Anti-YFV-17D activity 3D spheroids EC90
YFV-17D [4] = test: microbe, parasite or virus in culture; format: cell-based; conditions: Yellow fever virus, Huh-7, 72 h; for EC50: read-out: Anti-YFV-17D EC50 (reduction in infectious virus); for EC90: read-out: Anti-YFV-17D EC90 (reduction in infectious virus)
cell lines = conditions: cited from earlier work
in vitro [5] = conditions: African green monkey
YFV-17DD [6] = conditions: mouse, in vivo; cited from earlier work
Huh-7 cells = test: cells; conditions: Homo sapiens, Huh-7, 336 h
[7] = test system: clinical YFV isolate (WT306); conditions: mouse, in vivo, 10 mg/kg
[8] = rat, in vivo; cited from earlier work
[9] = test system: Japanese encephalitis virus (JEV); conditions: read-out: EC50 against Japanese encephalitis virus; cited from earlier work
Zika virus (ZIKV) = conditions: read-out: EC50 against Zika virus; cited from earlier work
HCV = conditions: read-out: EC50 against HCV; cited from earlier work
YFV-17DD [10] = conditions: mouse, in vivo
dengue virus (DENV) = conditions: read-out: EC50 against dengue virus; cited from earlier work
YFV [11] = conditions: cited from earlier work
YFV [12] = conditions: mouse, in vivo; cited from earlier work
in vitro [13] = conditions: human
in vitro [14] = conditions: human; remark: listed apart in the source
in vitro [15] = conditions: human; remark: listed apart in the source
[16] = Huh-7, 72 h, read-out: Anti-YFV-17D activity Huh-7 EC50
[17] = read-out: Mitotoxicity (Huh-7) IC50 MtDNA
[18] = read-out: Mitotoxicity (Huh-7) IC50 nDNA

SMILES | EC50 (YFV-17D [1]) [µM] | EC90 (YFV-17D [1]) [µM] | EC50 (YFV-17D [2]; [16]) [µM] | EC90 (YFV-17D [2]; Huh-7, 72 h) [µM] | Average infectious YFV yield, YFV-DakH1279 (YFV-DakH1279) | EC50 (YFV-DakH1279) [µM] | EC90 (YFV-DakH1279) [µM] | EC50 (YFV-17D [3]) [µM] | EC90 (YFV-17D [3]) [µM] | EC50 (YFV-17D [4]) [µM] | EC90 (YFV-17D [4]) [µM] | cytotoxicity CC50 (cell lines) | CC50 (in vitro [5]) [µM] | IC50 (Huh-7 cells; [17]) [µM] | IC50 (Huh-7 cells; [18]) [µM] | further results
CC(C)OC(=O)[C@H](C)N[P@](=O)(OC[C@H]1O[C@@H](n2ccc(=O)[nH]c2=O)[C@@](F)(Br)[C@@H]1O)Oc1ccccc1 [Compound 2-FBU] | 0.2 ± 0.1 | 3 ± 1.6 | 0.9 ± 0.8 | 8.1 ± 3.5 | 4.0x10^4 ± 6.1x10^3 FFU/mL and 2.4x10^4 ± 9.8x10^3 FFU/mL and 3.3x10^3 ± 2.4x10^3 FFU/mL and 2.8x10^2 ± 1.7x10^2 FFU/mL | 1.7 ± 1.1 | 3.5 ± 2.3 | 2.2 ± 0.2 | 7.7 ± 0.3 | 1.2 ± 0.5 | 8.6 ± 3.1 | 68.9–>100 | > 100 | 40.9 | > 50 | log reduction in YFV genome copies in the liver tissue (YFV-17DD [6]): 0.7 log; percent reduction in YFV genome copies in the liver tissue (YFV-17DD [6]): ~ 80%
C[C@@]1(O)[C@H](O)[C@@H](CO)O[C@H]1n1cc(F)c2c(N)ncnc21 [DFA, 7-deaza-7-fluoro-2′-C-methyladenosine] | 0.5 ± 0.4 | 1 ± 0.6 | 0.9 ± 0.6 | 3.4 ± 0.5 |  | 2.4 ± 1.9 | 5 ± 3.1 | 5.5 ± 1.3 | 12.6 ± 1.9 | 0.8 ± 0.4 | 5.6 ± 2.6 | >100–>200 | 92.4 ± 8.1 | > 50 | > 50 | ALT levels [7]: markedly reduced; YFV-mediated liver pathology (histology) [7]: significantly reduced; clinical severity (clinical disease score) [7]: modest but significant decrease; leukocytosis (total circulating leukocytes) [7]: significantly reduced; total portion of granulocytes in the blood [7]: significantly reduced; virus replication in the liver, infectious virions (plaque assay) [7]: significantly reduced; virus replication in the liver, total genome copy numbers [7]: significantly reduced; EC50 (YFV-17D [2]; Huh-7, read-out: EC50 against YFV-17D in vitro (summary range)): 0.9 to 5.5 µM; pharmacokinetic profile [8]: favorable pharmacokinetic profile; EC50 [9]: 0.9 µM; EC50 (Zika virus (ZIKV)): 3.7 µM; EC50 (HCV): 0.07 to 0.9 µM; body weight (YFV-17DD [10]): no significant changes; inflammatory cell infiltration, infiltrate score (YFV-17DD [10]): ~ 1; total white blood cell numbers (YFV-17DD [10]): no significant changes; ALT levels (YFV-17DD [10]; 10 mg/kg): significantly reduced; YFV-17DD replication in the livers (qRT-PCR) (YFV-17DD [10]; 10 mg/kg): significantly reduced; liver pathology by histopathological analysis (YFV-17DD [10]; 10 mg/kg): reduced liver pathology; overall health status (YFV-17DD [10]; 10 mg/kg): no notable impact; EC50 (dengue virus (DENV)): 0.5 to 1 µM
Nc1ncnc2c([C@@H]3N[C@H](CO)[C@@H](O)[C@H]3O)c[nH]c12 [Galidesivir] |  |  |  |  |  |  |  |  |  |  |  |  |  |  |  | activity against YFV in vitro (YFV [11]): active
CC(C)OC(=O)[C@H](C)N[P@](=O)(OC[C@H]1O[C@@H](n2ccc(=O)[nH]c2=O)[C@](C)(F)[C@@H]1O)Oc1ccccc1 [Sofosbuvir] | 1 ± 0.7 | 2.4 ± 1.5 | 0.6 ± 0.6 | 3 ± 2.5 | 2.7x10^4 ± 1.1x10^4 FFU/mL and 1.4x10^4 ± 1.2x10^4 FFU/mL and 2.2x10^3 ± 1.2x10^3 FFU/mL and 1.8x10^2 ± 1.2x10^2 FFU/mL | 1.6 ± 1.3 | 3.1 ± 2.4 |  |  | 0.3 ± 0.1 | 1.2 ± 0.1 |  | > 100 | > 50 | > 50 | efficacy against YFV in mice (YFV [12]): little efficacy; CC50 (in vitro [13]): 85.6 ± 11.6 µM; CC50 (in vitro [14]): > 100 µM; CC50 (in vitro [15]): > 100 µM
